Laboratory results reported in patent US6825230B2, “Spiro and dispiro 1,2,4-trixolane antimalarials” (Medicines for Malaria Venture MMV, priority 2002, dated 2004).
≈ marks a conversion by molar mass, not a printed value. Where two headings read alike, the source gives them in different places.

Key:
[1] = system: P. berghei ANKA strain; test: Divided 3x3 mg/kg and 3x1 mg/kg po doses in infected mice; type: in vivo, Plasmodium berghei
In short: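 Male NMRI mice were infected i.v. with 2×10^7 P. berghei-parasitized erythrocytes on day 0, then dosed orally in SSV vehicle on days 1, 2 and 3 post-infection.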

[2] = system: P. berghei ANKA strain; test: Onset of action and recrudescence experiment, single 100 mg/kg po; type: in vivo, Plasmodium berghei; details: single 100 mg/kg po (SSV) on day +3 post-infection; recrudescence = >5% parasitemia; followed up to 60 days; groups of five
Method: The onset of drug action was determined after a single fixed dose of 100 mg/kg (SSV vehicle) po to groups of five animals on day +3 post-infection (day 0).
(§1) Moro NMRI male mice (Fu Albino specific pathogen free) weighing 18±2 g were infected intravenously (i.v.) with 2×10^7 P. berghei ANKA strain-infected erythrocytes from donor mice on day 0 of the experiment. From donor mice with circa 30% parasitemia, heparinized blood was taken and diluted in physiological saline to 10^8 parasitized erythrocytes per ml. An aliquot (0.2 ml) of this suspension was injected i.v. into experimental and control groups of mice. […] Throughout the experiments, mice were kept in groups of three or five animals in Makrolon type II cages in an air-conditioned animal room at 22 to 23° C.

[3] = system: ANKA strain of Plasmodium berghei; test: Single dose ED50/ED90/ED99 determination in infected mice; type: in vivo
In short: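 Moro SPF or NMRI mice (three per group) infected with P. berghei ANKA were dosed once on day 1 post-infection in SSV (0.5% CMC, 0.5% benzyl alcohol, 0.4% Tween 80, 0.9% NaCl). Parasitemia reduction was scored on day 3; ED values (mg/kg) came from nonlinear fitting.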

[4] = system: P. berghei ANKA strain; test: Divided 3x10 mg/kg vs single 1x30 mg/kg po dose in infected mice; type: in vivo, Plasmodium berghei; details: for Cures 3 × 10 mg/kg p.o. SSV: 10 mg/kg po on days 1, 2, 3; for Cures 3 × 10 mg/kg p.o. SSV / Cures 1 × 30 mg/kg p.o. SSV: cure = survival to day 30 post-infection; for Survival (days) 3 × 10 mg/kg p.o. SSV / Activity (%) 3 × 10 mg/kg p.o. SSV: 10 mg/kg po on days 1, 2, 3 post-infection; for Activity (%) 3 × 10 mg/kg p.o. SSV / Activity (%) 1 × 30 mg/kg p.o. SSV: parasitemia reduction on day 4; for Survival (days) 1 × 30 mg/kg p.o. SSV / Activity (%) 1 × 30 mg/kg p.o. SSV: single 30 mg/kg po on day 1 post-infection; for Cures 1 × 30 mg/kg p.o. SSV: single 30 mg/kg po
Method: as §1
They were administered per os (p.o.) in a total volume of 0.01 ml per gram of mouse. The activity of the compound was determined by a variety of methods outlined in subsequent sections. Survival time was also recorded, and survival to day 30 post-infection was considered to be a cure.
The first experiment conducted consisted of administration of a divided 3×10 mg/kg p.o. dose administered on days 1, 2, and 3 post-infection vs. a single 1×30 mg/kg po dose administered on day 1 post-infection. On day 4 post-infection, blood smears of all animals were prepared and stained with Giemsa. […] Compounds were administered orally in the SSV vehicle.

[5] = system: P. berghei ANKA strain; test: Prophylactic activity, single 100 mg/kg po at various times before infection; type: in vivo, Plasmodium berghei; details: for Prophylactic Activity (%) 24 h: single 100 mg/kg po 24 h before infection; for Prophylactic Activity (%) 0 h: single 100 mg/kg po at 0 h
Method: as §1
Prophylactic activities of the compounds were compared after administering po single dose of 100 mg/kg to different groups of five animals at various times before infection. All groups including an untreated control group, were then infected at the same time. Parasitemia was determined for each animal on day 3 post-infection, and percent of reduction of the level of parasitemia compared to levels for animals given no drug is determined.

[6] = system: ANKA strain of P. berghei; test: Single dose STI in vivo screen in infected mice; design: species or system Plasmodium berghei; details: for Activity (%) 3 mg/kg SSV po / Survival (days) 3 mg/kg SSV po: single 3 mg/kg po in SSV; for Activity (%) 3 mg/kg SSV po / Activity (%) 10 mg/kg SSV po: percent reduction in parasitemia on day 3; for Survival (days) 10 mg/kg SSV po: single 10 mg/kg po in SSV, untreated 6-7 days; for Activity (%) 10 mg/kg SSV po: single 10 mg/kg po in standard suspending vehicle (SSV) on day 1 post-infection
[7] = system: chloroquine-sensitive NF54 strain of P. falciparum; test: In vitro antimalarial semiautomated microdilution assay ([3H]-hypoxanthine incorporation), NF54 strain; type: cell-based, Plasmodium falciparum; details: Plasmodium falciparum; chloroquine-sensitive NF54 strain, 72 h incubation; read-out: IC50 (ng/ml) NF54
In short: (§2)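 IC50 comes from Logit regression of [3H]-hypoxanthine incorporation data. Intraerythrocytic P. falciparum taken from asynchronous stock cultures is exposed to OZ compounds in a semiautomated microdilution format.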

[8] = system: Schistosoma mansoni adult worms (49-day-old); test: Effect on adult schistosomes (49-day-old) in infected mice; type: in vivo; details: po, 400 mg/kg, 1176 h
Method: Mice were infected with 100 Schistosoma mansoni cercariae on day 49 post-treatment. Each group was treated per os with OZ compounds at single doses of 200, 400, and 600 mg/kg. Untreated mice served as the control. All groups were killed 4 weeks after treatment and the liver and intestine were removed and separated. The liver and intestine were compressed and alive male and female worms could be seen and counted.

[9] = system: chloroquine-resistant K1 strain of P. falciparum; test: In vitro antimalarial semiautomated microdilution assay ([3H]-hypoxanthine incorporation), K1 strain; type: cell-based, Plasmodium falciparum; details: Plasmodium falciparum; chloroquine-resistant K1 strain, 72 h incubation; read-out: IC50 (ng/ml) K1
In short: as §2

[10] = system: Schistosoma japonicum; test: Effect in mice infected with Schistosoma japonicum; type: in vivo; details: age of worm 35 days, 400 mg/kg x 1
[11] = system: Schistosoma mansoni 21-day-old schistosomules; test: Effect on 21-day-old schistosomules in infected mice; type: in vivo; details: po, 200 mg/kg, 504 h
Method: Mice were infected with 100 Schistosoma mansoni cercariae on day 21 post-treatment. Each group was treated per os with trioxolanes at a single dose of 200 mg/kg. […] All groups were killed 4 weeks after treatment and the liver and intestine were removed and separated. The liver and intestine were compressed and alive male and female worms could be seen and counted. The effect of the compounds was evaluated by mean total and female worm burden.

[12] = Pharmacokinetics in rats (IV and oral dosing); details: in vivo, po, 25 mg/kg
Source text: Artesunate is listed as a reference compound.

[13] = 3 × 1 mg/kg p.o. SSV on days 1, 2, 3 post-infection
[14] = 3 × 1 mg/kg p.o. SSV on days 1, 2, 3 post-infection, percent reduction of parasitemia vs control on day 4
[15] = 3 × 3 mg/kg p.o. SSV on days 1, 2, 3 post-infection
[16] = 3 × 3 mg/kg p.o. SSV on days 1, 2, 3 post-infection, percent reduction of parasitemia vs control on day 4
[17] = single dose po in SSV on day 1 post-infection, parasitemia day 3, nonlinear fitting
[18] = parasitemia reduction on day 3 post-infection

Row | Structure (SMILES) | Survival [1, 13] | Activity (%) [1, 14] | Survival [1, 15] | Activity (%) [1, 16] | Time of Recrudescence [2] | ED50 [3, 17] | ED90 [3, 17] | ED99 [3, 17] | Cures 3 × 10 mg/kg p.o. SSV [4] | Survival (days) 3 × 10 mg/kg p.o. SSV [4] | Activity (%) 3 × 10 mg/kg p.o. SSV [4] | Survival (days) 1 × 30 mg/kg p.o. SSV [4] | Activity (%) 1 × 30 mg/kg p.o. SSV [4] | Cures 1 × 30 mg/kg p.o. SSV [4] | Prophylactic Activity (%) 24 h [5, 18] | Prophylactic Activity (%) 0 h [5, 18] | Activity (%) 3 mg/kg SSV po [6] | Survival (days) 10 mg/kg SSV po [6] | Activity (%) 10 mg/kg SSV po [6] | Survival (days) 3 mg/kg SSV po [6] | also measured
1 | OC(c1cc(C(F)(F)F)nc2c(C(F)(F)F)cccc12)C1CCCCN1 (stereo not shown) [MFQ, mefloquine, reference compound] | 6.2 days | 2% | 12 days | 98% | 28.0 days | 4.0 mg/kg | 5.4 mg/kg | 6.8 mg/kg | 0/5 | 23.3 days | 99.92% | 20.3 days | 99.94% | 0/5 | 100% | 100% | 9% | 17 days | 99.11% | – | Duration of prophylactic protection ([5]; single 100 mg/kg po): 3 days; Prophylactic Activity (%) 48 h ([5]; single 100 mg/kg po 48 h before infection, parasitemia reduction on day 3 post-infection): 99.92%; Prophylactic Activity (%) 72 h ([5]; single 100 mg/kg po 72 h before infection, parasitemia reduction on day 3 post-infection): 99.97%
2 | CO[C@H]1O[C@@H]2O[C@@]3(C)CC[C@H]4[C@H](C)CC[C@@H]([C@H]1C)[C@@]24OO3 [AM, artemether, reference compound] | 7.2 days | – | 9.4 days | 86% | 12.0 days | – | – | 7.1 mg/kg | – | – | – | – | – | – | 0% | 100% | 79% | 9.4 days | 99.75% | 8.7 days | IC50 [7]: 0.36 ng/mL (≈ 1.21 nM); Activity (%) ([1]; po, 1 mg/kg, 96 h): 51%; Cures ([1]; po, 3 mg/kg, 720 h): 0\5; % reduction of adult worms growth at day 49 after per os application of 400 mg/kg, TWR (%) [8]: 53%; Adult worms day 49, per os 400 mg/kg, DEAD WORM (%) [8]: 29%; IC50 [9]: 0.45 ng/mL (≈ 1.51 nM); Mice without female worm [10]: 0/7; MFWB (mean female worm burden) x ± SD ([10]; control 11.6 ± 2.4): 3.4 ± 1.6; MTWB (mean total worm burden) x ± SD ([10]; control 26.6 ± 4.2): 10.1 ± 4.4; ED50 ([3]; Plasmodium berghei, single dose po in SSV on day 1 post-infection, parasitemia day 3, nonlinear fitting, read-out: ED50): 2.2 mg/kg; ED90 ([3]; po): 4.2 mg/kg; % reduction of schistosomule growth at day 21 after per os application of 200 mg/kg, FWR (%) [11]: (n2) 78%; % reduction of schistosomule growth at day 21 after per os application of 200 mg/kg, TWR (%) [11]: (n2) 81%
3 | C[C@H]1[C@H](OC(=O)CCC(=O)O)O[C@@H]2O[C@@]3(C)CC[C@H]4[C@H](C)CC[C@@H]1[C@@]24OO3 [AS, artesunate, reference compound] | 6.8 days | 39% | 9.4 days | 78% | 8.6 days | 4.7 mg/kg | 19 mg/kg | 60 mg/kg | 0/5 | 11 days | 98.62% | 9 days | 83.83% | 0/5 | 6.28% | 92.44% | 66% | 7.0 days | 87% | 8.0 days | Rat Oral Bioavailability 25 mg/kg (DHA) [12]: 21%
